# Experimental data taken from BindingDB's records for doi:10.7270/Q2ST7N9K (Burnham Center For Chemical Genomics, 2010).
# Biological target: Intestinal-type alkaline phosphatase (Homo sapiens, UniProt P09923)
# Assay: human intestinal alkaline phosphatase activators, dose response, biochemical, luminescence, uHTS hits (AID 463120)
# Intestinal-type alkaline phosphatase, sequence (P09923 whole entry): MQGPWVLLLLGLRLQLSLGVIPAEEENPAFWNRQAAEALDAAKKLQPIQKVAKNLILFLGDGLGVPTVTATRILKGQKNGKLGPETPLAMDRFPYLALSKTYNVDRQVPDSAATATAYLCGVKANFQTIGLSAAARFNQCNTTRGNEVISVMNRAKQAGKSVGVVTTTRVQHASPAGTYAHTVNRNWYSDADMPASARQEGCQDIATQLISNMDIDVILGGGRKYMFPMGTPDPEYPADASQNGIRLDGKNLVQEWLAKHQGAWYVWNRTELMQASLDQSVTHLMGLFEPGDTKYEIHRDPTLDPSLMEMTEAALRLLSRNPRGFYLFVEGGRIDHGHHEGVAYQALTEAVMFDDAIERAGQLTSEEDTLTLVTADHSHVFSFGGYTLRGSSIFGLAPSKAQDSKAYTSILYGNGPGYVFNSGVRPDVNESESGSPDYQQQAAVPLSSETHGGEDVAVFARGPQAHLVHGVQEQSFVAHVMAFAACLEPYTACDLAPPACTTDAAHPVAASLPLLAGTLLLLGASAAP
row,Compound,EC50
1,COc1cccc(CN=Nc2nn3cnnc3c3ccccc23)c1O,> 100 µM
2,Cc1c(C(=O)NN=Cc2ccc(O)cc2O)[nH][nH]c1=O,8.3 µM
3,"Cc1cc(Br)ccc1SCC(=O)OCC(=O)C(C#N)c1nc2ccccc2[nH]1 (stereo not drawn) [2-[(4-bromo-2-methylphenyl)thio]acetic acid [3-cyano-3-(1,3-dihydrobenzimidazol-2-ylidene)-2-oxopropyl] ester]",13.4 µM
4,"COc1ccc(Cc2cc(O)n(-c3ccc(C)cc3)c2O)cc1 [3-(4-Methoxy-benzyl)-1-p-tolyl-pyrrolidine-2,5-dione]",> 100 µM
5,C=c1[nH]n(-c2nc3ccccc3[nH]2)c(=O)c1=CN(C)C [(4E)-2-(1H-benzimidazol-2-yl)-4-(dimethylaminomethylidene)-5-methyl-pyrazol-3-one],12.3 µM
6,"COc1cccc(C=NNC(=O)c2[nH][nH]c(=O)c2C)c1O [N'-[(E)-(5-methoxy-6-oxidanylidene-cyclohexa-2,4-dien-1-ylidene)methyl]-4-methyl-5-oxidanylidene-1,4-dihydropyrazole-3-carbohydrazide]",6.53 µM
7,"CCOC(=O)c1c(C)[nH]c(C(=O)N/N=C/C2C=C([N+](=O)[O-])C=CC2=O)c1C (stereo not drawn) [ethyl 2,4-dimethyl-5-[[[(E)-(3-nitro-6-oxocyclohexa-2,4-dien-1-ylidene)methyl]amino]carbamoyl]-1H-pyrrole-3-carboxylate]",12.1 µM

# Second part, the compound after the results:
row,EC50,Compound
1,6.62 µM,CCc1ccc(CN=Nc2ncnc3nc[nH]c23)cc1 [MLS000419199]
2,77 µM,Cn1c(C(C#N)C(=O)c2ccc(Br)s2)nc2ccccc21 (stereo not drawn) [MLS001167394]
3,> 100 µM,Cc1ccc(O)c(N=CCC(=O)c2ccc(F)cc2)c1 [MLS001183581]
4,13.6 µM,O=c1c2ccccc2nc(N=NCc2c(O)ccc3ccccc23)n1O [SMR000145705]
5,9.21 µM,O=C(Nn1c(O)csc1=S)C(=O)Nn1c(O)csc1=S [SMR000349781]
6,8.21 µM,O=Nc1[nH]c(=O)c(CC(=O)c2ccccc2)nc1NO [SMR000539633]
